The source of these data is patent publication US20240409536A1, “COMPOUNDS AND METHODS FOR MODULATING SPLICING” (REMIX THERAPEUTICS INC., priority 2021, published 2024).

The subject of one experiment is MYB mRNA. The experiment in a line: Splicing RT-qPCR assay, MYB canonical (CJ) and alternative (AJ) junction mRNA. The format is cell-based. As to conditions: Homo sapiens, A673 or K562 cells, 24 hours; for IC50: decrease in canonical junction mRNA; for AC50: increase in alternative junction mRNA. The procedure, abridged: (§1)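 Splice switching was scored by qPCR detection of the new alternative-exon junction (AJ) alongside the canonical junction (CJ). Cell lines A673 or K562 received compound 24 h, top dose 10 uM final.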
In general terms: Real-time PCR tracks product formation cycle by cycle.

The next experiment relates to HTT mRNA. The experiment in a line: Splicing RT-qPCR assay, HTT canonical (CJ) and alternative (AJ) junction mRNA. Conditions: Homo sapiens, A673 or K562 cells, 24 hours; for IC50: decrease in canonical junction mRNA; for AC50: increase in alternative junction mRNA. The class given is cell-based. The procedure, abridged: as §1
The next experiment has as its system Target C. The experiment in a line: HiBiT protein abundance assay, Target C (K562 HiBiT knock-in cells). As to conditions: 24 hours. The class given is cell-based, human. The procedure, abridged:
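K562 knock-in cells (10000/well, IMDM+1% FBS) treated 24 h at 37 °C with 10-point 3-fold dilutions, top final 10 μM, DMSO ≤0.25%. HiBiT lytic luminescence read; response normalized to unmodified K562 and DMSO-treated controls. IC50 interpolated at 50% abundance by four-parameter logistic fit.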
For orientation: With HiBiT, luminescence reflects the tagged protein that the partner subunit can reach.

In general, IC50 refers to the midpoint of a concentration-inhibition curve. A higher IC50 goes with a need for much substance. What is called AC50 is the midpoint of the concentration-response curve, whichever way the signal moves. High values mean activity only at high concentration, low ones activity at low concentration. Consider `Cc1cn2cc(NC(=O)c3ccc(N4CCNC(C)(CO)C4)c4nccnc34)cc(F)c2n1` (stereo not shown) [Compound 368], for which the results for the half-inhibitory concentration (IC50) in the experiment with MYB mRNA, in the experiment on HTT mRNA and with Target C were below 100 nM, 1000 to 10000 nM and 1000 to 10000 nM, respectively. For the same compound, the AC50 with MYB mRNA is below 100 nM; in the experiment with HTT mRNA it was 1000 to 10000 nM.

As to `Cc1cn2cc(NC(=O)c3ccc(N4CCN(CCO)C5(CC5)C4)c4nccnc34)cc(F)c2n1` [Compound 369], the results for the IC50 with MYB mRNA, with HTT mRNA and in the experiment on Target C were 100 to 1000 nM, 1000 to 10000 nM and 1000 to 10000 nM, respectively. Moreover, the AC50 in the experiment with MYB mRNA is 100 to 1000 nM; in the experiment with HTT mRNA, 1000 to 10000 nM.
